Data set [1] is described as follows: Dissolution speed: time until 1 g of powder dissolves completely in 100 ml warm water at 50° C., stirring 550 rpm. The format is physicochemical. How it is done: As to the dissolution speed, 1 g of powder was dropped into 100 ml of warm water at 50° C. with stirring at a number of revolutions of 550 rpm (using a 200 ml beaker and a magnetic stirrer), and the time until dissolving completely was measured. The time was employed as an indicator of the dissolution speed.
(§1) As to the dissolution speed, 1 g of powder was dropped into 100 ml of warm water at 50° C. or water at ordinary temperature with stirring at a number of revolutions of 550 rpm (using a 200 ml beaker and a magnetic stirrer), and the time until dissolving completely was measured. A mean value of twice measurement was employed as an indicator of the dissolution speed.

The nature of data set [2]: Dissolution speed: time until 1 g of powder dissolves completely in 100 ml water at ordinary temperature, stirring 550 rpm. The format is physicochemical. To be noted: Table 4, 25 degrees (ordinary temperature), 1 g in 100 ml water, mean of twice measurement. As to the method: as §1
Data set [3] is described as follows: Mean particle size D50 by digital image analysis type particle size distribution meter. The format is physicochemical. The source says: The size of the solid solution of the invention is preferably 50-1000 μm as a mean particle size. The mean particle size as used herein refers to the number median particle size of sieve diameter D50. In view of dissolution speed taking melting ability in the mouth of solid foods and usability as solid beverages into consideration, too large crystals are unsuitable for practical use. Too small crystals are also unsuitable, due to being choked by dusting upon eating and dusting loss upon manufacturing. As to the mean particle size, D50 was measured by a digital image analysis type particle size distribution meter (Ana Tec As Norway). […]

For data set [4] the following is noted: at 20° C.; water; cited from earlier work.
The mark [5] stands for this setting: Table 1, 1 g in 100 ml warm water at 50° C., time until dissolving completely.
Setting [6] is: Table 5, 50 degrees, 1 g in 100 ml warm water, mean of twice measurement.

SMILES strings stand for the structures.

`CC[C@H](C)[C@H](N)C(=O)O` [Ile, L-isoleucine]: the “Dissolution Speed” value in data set [1] (setting [5]) was 129 s; in data set [1] (setting [6]) it was 128.5 s; in data set [2], 287 s. In addition, the “Mean Particle Size” value in data set [3] (Table 1), in data set [3] (Table 4) and in data set [3] (Table 5) was 400 μm throughout. Also, the solubility in data set [4] is 4.02 g.
As to `CC(C)C[C@H](N)C(=O)O` [Leu, L-leucine], the figures for the “Dissolution Speed” value in data set [1] (setting [5]), in data set [1] (setting [6]) and in data set [2] were 130 s, 130 s and 320 s, respectively. Moreover, the “Mean Particle Size” value in data set [3] (Table 1), in data set [3] (Table 4) and in data set [3] (Table 5) was 280 μm each time. Moreover, in data set [4], the solubility is 2.38 g.
Regarding `CC(C)[C@H](N)C(=O)O` [Val, L-valine], the “Dissolution Speed” value in data set [1] (setting [5]) stood at 118 s; in data set [1] (setting [6]), 117.5 s; in data set [2] it was 142 s. Moreover, the “Mean Particle Size” value in data set [3] (Table 1), in data set [3] (Table 4) and in data set [3] (Table 5) was 210 μm in each case. Further, in data set [4], the solubility is recorded as 5.75 g.

The record behind these values is patent US20110257236A1, “SOLID SOLUTION OF VALINE, ISOLEUCINE, LEUCINE AND ITS MANUFACTURING METHOD” (AJINOMOTO CO., INC., priority 2008, published 2011).
